Drawing on patent publication US10035800B2 (AbbVie Inc., priority 2013, dated 2018), this text covers Ki and EC50 for 16 molecules.

Each structure is given as a SMILES string. Read-outs that look alike come from different tables or passages of the source.

One assay has as its target T1, BRD4 (BDI_K57-E168) (Homo sapiens, UniProt O60885).
T1 construct: BD1: amino acids K57-E168; made in house
Briefly: TR-FRET bromodomain binding assay, first bromodomain of BRD4. The settings on record: TR-FRET assay protocol G (compound 0.92 μM-15 pM); 100 nM probe. An outline of the steps: (§1)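 TR-FRET displacement of an Alexa647-labelled BET-inhibitor probe from His-tagged BRD4 BD1 or BD2 (8 nM), read via 1 nM Eu-anti-His antibody after 1 h at room temperature. Buffer was 20 mM sodium phosphate pH 6.0 with 2% DMSO. Probe was 100 nM for BDI and 30 nM for BDII. IC50 came from 4-parameter fits, and Ki from IC50, probe Kd and probe concentration.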
(In general: TR-FRET usually uses a lanthanide donor and a delayed reading to cut background.)

The next assay concerns the target T2, BRD4 (BDII_E352-M457) (Homo sapiens, UniProt O60885).
T2 construct: protocol; made in house
The assay is described as follows: TR-FRET bromodomain binding assay, second bromodomain of BRD4. To be noted: TR-FRET assay protocol G (compound 0.92 μM-15 pM); 30 nM probe. The essentials: as §1

Assay [1] relates to breast cancer cell line MX-1. Briefly: MX-1 cell line proliferation assay. The settings on record: MX-1 cells, 3-day proliferation assay, Cell Titer Glo, read-out: Cellular proliferation: EC50. The assay is classed as cell-based. The essentials: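 MX-1 cells at 5000/well, in RPMI 1640 with 10% FBS, were exposed to compounds for 3 days. Final concentrations ranged 3 μM–0.1 nM or 1 μM–0.03 nM, in 3-fold steps. Cell Titer Glo luminescence was normalized to DMSO and fitted sigmoidally for EC50; overall MSR 2.1.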
(In ATP-based viability assays light output follows the ATP content of the culture.)

As a reminder, the Ki is a measure of affinity in units of concentration, obtained from inhibition or displacement. A high value points to a looser hold on the target.

For `CCNC(=O)c1[nH]c2c(=O)n(C)cc3c2c1CN(c1ccc(C#N)cc1)c1ccc(CS(C)(=O)=O)cc1-3` [Example 203, 4-(4-cyanophenyl)-N-ethyl-10-methyl-7-((methylsulfonyl)methyl)-11-oxo-3,4,10,11-tetrahydro-1H-1,4,10-triazadibenzo[cd,f]azulene-2-carboxamide], the Ki was determined as 0.99 nM at BRD4 (BDI_K57-E168) and 0.71 nM on BRD4 (BDII_E352-M457). For the same molecule, the EC50 in assay [1] is 5.43 nM.
Take `Cn1cc2c3c(c[nH]c3c1=O)C(CN1C(=O)c3ccccc3C1=O)N(c1ccc(F)cc1F)c1ccc(CS(C)(=O)=O)cc1-2` [Example 204, (S)-2-((4-(2,4-difluorophenyl)-10-methyl-7-((methylsulfonyl)methyl)-11-oxo-3,4,10,11-tetrahydro-1H-1,4,10-triazadibenzo[cd,f]azulen-3-yl)methyl)isoindoline-1,3-dione]: the inhibitory constant (Ki) at BRD4 (BDI_K57-E168) came to 46.1 nM; on BRD4 (BDII_E352-M457), 1.22 nM. Moreover, the EC50 in assay [1] was over 1000 nM.
As to `Cn1cc2c3c(c[nH]c3c1=O)C(CN1C(=O)c3ccccc3C1=O)N(c1ccc(F)cc1F)c1ccc(CS(C)(=O)=O)cc1-2` [Example 205, (R)-2-((4-(2,4-difluorophenyl)-10-methyl-7-((methylsulfonyl)methyl)-11-oxo-3,4,10,11-tetrahydro-1H-1,4,10-triazadibenzo[cd,f]azulen-3-yl)methyl)isoindoline-1,3-dione], the Ki at BRD4 (BDI_K57-E168) amounted to 200 nM; on BRD4 (BDII_E352-M457) it was 29.1 nM. Also, the EC50 in assay [1] was over 1000 nM.
The corresponding values for `CCOC(=O)c1[nH]c2c(=O)n(C)cc3c2c1CN(c1ccc(F)cc1F)c1ccc(CS(C)(=O)=O)cc1-3` [Example 208, ethyl 4-(2,4-difluorophenyl)-10-methyl-7-((methylsulfonyl)methyl)-11-oxo-3,4,10,11-tetrahydro-1H-1,4,10-triazadibenzo[cd,f]azulene-2-carboxylate] are 3.41 nM, 1.15 nM and 10.7 nM.
The corresponding values for `Cn1cc2c3c(c(C(N)=O)[nH]c3c1=O)CN(c1ccc(F)cc1F)c1ccc(CS(C)(=O)=O)cc1-2` [Example 209, 4-(2,4-difluorophenyl)-10-methyl-7-((methylsulfonyl)methyl)-11-oxo-3,4,10,11-tetrahydro-1H-1,4,10-triazadibenzo[cd,f]azulene-2-carboxamide] are 1.2 nM, 0.86 nM and 6.54 nM.
Turning to `Cn1cc2c3c(c(C#N)[nH]c3c1=O)CN(c1ccc(F)cc1F)c1ccc(CS(C)(=O)=O)cc1-2` [Example 210, 4-(2,4-difluorophenyl)-10-methyl-7-((methylsulfonyl)methyl)-11-oxo-3,4,10,11-tetrahydro-1H-1,4,10-triazadibenzo[cd,f]azulene-2-carbonitrile], the Ki at BRD4 (BDI_K57-E168) worked out at 1.72 nM; at BRD4 (BDII_E352-M457), 0.8 nM. Further, in assay [1], the EC50 is 13.3 nM.
For `COc1cc(N2Cc3c[nH]c4c(=O)n(C)cc(c34)-c3cc(CS(C)(=O)=O)ccc32)cc(OC)c1OC` [Example 211, 10-methyl-7-((methylsulfonyl)methyl)-4-(3,4,5-trimethoxyphenyl)-3,4-dihydro-1H-1,4,10-triazadibenzo[cd,f]azulen-11(10H)-one], the Ki worked out at 5.67 nM at BRD4 (BDI_K57-E168) and 7.47 nM on BRD4 (BDII_E352-M457). For the same molecule, in assay [1], the EC50 is 118 nM.
For `Cn1cc2c3c(c[nH]c3c1=O)C(c1ccccc1)N(c1ccc(F)cc1F)c1ccc(CS(C)(=O)=O)cc1-2` (stereo not drawn) [Example 214, 4-(2,4-difluorophenyl)-10-methyl-7-((methylsulfonyl)methyl)-3-phenyl-3,4-dihydro-1H-1,4,10-triazadibenzo[cd,f]azulen-11(10H)-one], in that order: 40.8 nM, 3.25 nM and 431 nM.
In the case of `Cn1cc2c3c(c[nH]c3c1=O)C(c1ccccc1)N(c1ccc(F)cc1F)c1ccc(CS(C)(=O)=O)cc1-2` [Example 216, (S)-4-(2,4-difluorophenyl)-10-methyl-7-((methylsulfonyl)methyl)-3-phenyl-3,4-dihydro-1H-1,4,10-triazadibenzo[cd,f]azulen-11(10H)-one], the values for the Ki at BRD4 (BDI_K57-E168) and at BRD4 (BDII_E352-M457) were 57.3 nM and 65.8 nM, respectively. In assay [1], the EC50 stood at 603 nM.
Turning to `Cn1cc2c3c(c[nH]c3c1=O)C(c1cccc3ccccc13)N(c1ccc(F)cc1F)c1ccc(CS(C)(=O)=O)cc1-2` (stereo not drawn) [Example 217, 4-(2,4-difluorophenyl)-10-methyl-7-((methylsulfonyl)methyl)-3-(naphthalen-1-yl)-3,4-dihydro-1H-1,4,10-triazadibenzo[cd,f]azulen-11(10H)-one], the figures for the inhibition constant Ki on BRD4 (BDI_K57-E168) and on BRD4 (BDII_E352-M457) were 193 nM and 42.6 nM, respectively. Besides, the EC50 in assay [1] was over 1000 nM.
On to `[2H]C1([2H])c2c[nH]c3c(=O)n(C)cc(c23)-c2cc(CS(C)(=O)=O)ccc2N1c1ccc(F)cc1F` [Example 218, 4-(2,4-difluorophenyl)-(3,3-^2H2)-10-methyl-7-((methylsulfonyl)methyl)-3,4-dihydro-1H-1,4,10-triazadibenzo[cd,f]azulen-11(10H)-one], for which the Ki at BRD4 (BDI_K57-E168) and at BRD4 (BDII_E352-M457) was 0.64 nM throughout. The EC50 in assay [1] (Homo sapiens, MX1, 72 h) came to 1.36 nM.
On to `Cn1cc2c3c(c[nH]c3c1=O)C(CC(C)(C)C)N(c1ccc(F)cc1F)c1ccc(CS(C)(=O)=O)cc1-2` (stereo not drawn) [Example 219, 4-(2,4-difluorophenyl)-10-methyl-7-((methylsulfonyl)methyl)-3-neopentyl-3,4-dihydro-1H-1,4,10-triazadibenzo[cd,f]azulen-11(10H)-one], for which the values for the Ki on BRD4 (BDI_K57-E168) and on BRD4 (BDII_E352-M457) were 39.9 nM and 4.76 nM, respectively. In assay [1], the EC50 amounted to 301 nM.
Turning to `Cn1cc2c3c(c[nH]c3c1=O)C(CN1Cc3ccccc3C1=O)N(c1ccc(F)cc1F)c1ccc(CS(C)(=O)=O)cc1-2` (stereo not drawn) [Example 220, 4-(2,4-difluorophenyl)-10-methyl-7-((methylsulfonyl)methyl)-3-((1-oxoisoindolin-2-yl)methyl)-3,4-dihydro-1H-1,4,10-triazadibenzo[cd,f]azulen-11(10H)-one], the Ki was found to be 51.6 nM on BRD4 (BDI_K57-E168) and 2.61 nM at BRD4 (BDII_E352-M457). Also, in assay [1], the EC50 was 285 nM.
Turning to `COc1cc(OC)cc(C2c3c[nH]c4c(=O)n(C)cc(c34)-c3cc(CS(C)(=O)=O)ccc3N2c2ccc(F)cc2F)c1` (stereo not drawn) [Example 222, 4-(2,4-difluorophenyl)-3-(3,5-dimethoxyphenyl)-10-methyl-7-((methylsulfonyl)methyl)-3,4-dihydro-1H-1,4,10-triazadibenzo[cd,f]azulen-11(10H)-one], the inhibitory constant (Ki) at BRD4 (BDI_K57-E168) came to 170 nM; on BRD4 (BDII_E352-M457) it was 29.4 nM. For the same molecule, in assay [1], the EC50 amounted to 160 nM.
As to `COC(=O)NC1CCC(N2Cc3c[nH]c4c(=O)n(C)cc(c34)-c3cc(CS(C)(=O)=O)ccc32)CC1` (stereo not drawn) [Example 224, methyl (4-(10-methyl-7-((methylsulfonyl)methyl)-11-oxo-10,11-dihydro-1H-1,4,10-triazadibenzo[cd,f]azulen-4(3H)-yl)cyclohexyl)carbamate], the figures for the inhibitory constant (Ki) on BRD4 (BDI_K57-E168) and at BRD4 (BDII_E352-M457) were 1.64 nM and 1.4 nM, respectively. Besides, the EC50 in assay [1] was found to be 5.84 nM.
Take `COC(=O)NC1CCC(N2Cc3c[nH]c4c(=O)n(C)cc(c34)-c3cc(CS(C)(=O)=O)ccc32)CC1` (stereo not drawn) [Example 225, methyl ((trans)-4-(10-methyl-7-((methylsulfonyl)methyl)-11-oxo-10,11-dihydro-1H-1,4,10-triazadibenzo[cd,f]azulen-4(3H)-yl)cyclohexyl)carbamate]: the results for the Ki at BRD4 (BDI_K57-E168) and at BRD4 (BDII_E352-M457) were 3.25 nM and 2.39 nM, respectively. Besides, the EC50 in assay [1] is 12.2 nM.
